What was measured:
[1] = test system: anesthetized dog; assay: Effect on the increase in intravesical pressure induced by carbachol in anesthetized dog; format: in vivo; conditions: 0.01 mg/kg injected intravenously 5 minutes before carbachol (1.8 μg/kg); female Beagle dogs under halothane anesthesia; N = 3; P < 0.01 vs Control (4.5 ± 0.3)
Procedure: Effect on the increase in intravesical pressure induced by carbachol in anesthetized dog
Female Beagle dogs weighing 8.0-15.0 kg were fasted for 24 hours and maintained under halothane anesthesia. A 12F Foley catheter was lubricated with water soluble jelly, inserted into the urethral orifice and advanced approximately 10 cm until the balloon tip was placed well inside the bladder. The balloon was then inflated with 5 ml of room air and catheter slowly withdrawn just part the first resistance that is felt at the bladder neck. Urine was completely drained out through the catheter, and 30 ml of biological saline was infused. The catheter was connected to pressure transducer, and intravesical pressure was continuously recorded. The test compound was injected intravenously at 5 minutes before the administration of carbachol (1.8 μg/kg).

Row | SMILES | melting point | Increase in intravescial pressure (mmHg) [1] [mmHg]
1 | COc1ccc(C(C[C@@H](C)NC[C@H](O)COc2ccccc2)c2ccc(OC)cc2)cc1.O=C(O)C(=O)O | 121 to 123 °C | 
2 | COc1ccc(C(C[C@H](C)NC[C@H](O)COc2ccccc2)c2ccc(OC)cc2)cc1.O=C(O)C(=O)O | 79 to 94 °C | 
3 | CC(CC(c1ccc(O)cc1)c1ccc(O)cc1)NC[C@H](O)COc1ccccc1.Cl (mixture of isomers) [Test Compound (1), (2S)-1-[[(2RS)-4,4-bis(4-hydroxyphenyl)-2-butyl]amino]-3-phenoxy-2-propanol hydrochloride] [listing 1 of 2 here] |  | 2.5 ± 0.3
4 | CC(CC(c1ccc(O)cc1)c1ccc(O)cc1)NC[C@H](O)COc1ccccc1.Cl (mixture of isomers) [Test Compound (1), (2S)-1-[[(2RS)-4,4-bis(4-hydroxyphenyl)-2-butyl]amino]-3-phenoxy-2-propanol hydrochloride] [listing 2 of 2 here] | 73 °C (dec.) | 
